Assays:
[1] = biological target: T1, Serine/threonine-protein kinase DCLK2 (Homo sapiens) (UniProt Q8N568); assay: Residual activity of DCAMKL2 at 0.1 uM by microplate scintillation counting
T1 sequence (whole entry): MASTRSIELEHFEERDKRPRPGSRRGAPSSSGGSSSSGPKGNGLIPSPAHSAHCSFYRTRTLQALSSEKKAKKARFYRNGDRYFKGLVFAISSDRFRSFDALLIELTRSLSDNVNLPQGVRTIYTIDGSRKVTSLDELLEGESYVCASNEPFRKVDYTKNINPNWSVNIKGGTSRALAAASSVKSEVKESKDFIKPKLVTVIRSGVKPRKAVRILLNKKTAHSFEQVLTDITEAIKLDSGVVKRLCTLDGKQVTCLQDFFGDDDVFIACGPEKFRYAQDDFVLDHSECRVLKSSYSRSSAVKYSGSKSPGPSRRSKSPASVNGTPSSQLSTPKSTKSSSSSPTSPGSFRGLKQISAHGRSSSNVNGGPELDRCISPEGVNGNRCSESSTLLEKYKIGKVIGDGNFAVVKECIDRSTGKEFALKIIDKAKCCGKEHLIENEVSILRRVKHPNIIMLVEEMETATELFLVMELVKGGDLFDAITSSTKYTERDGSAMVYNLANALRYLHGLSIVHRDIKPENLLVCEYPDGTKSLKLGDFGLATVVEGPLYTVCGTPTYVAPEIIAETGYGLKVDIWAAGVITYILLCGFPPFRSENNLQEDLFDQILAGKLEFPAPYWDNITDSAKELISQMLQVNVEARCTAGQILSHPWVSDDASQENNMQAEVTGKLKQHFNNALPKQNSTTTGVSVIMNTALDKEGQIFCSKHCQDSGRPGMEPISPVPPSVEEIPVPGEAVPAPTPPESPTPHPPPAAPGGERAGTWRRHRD

[2] = biological target: Protein kinase C beta type (Homo sapiens) (UniProt P05771); assay: Residual activity of PKCbeta2 at 1 uM by microplate scintillation counting
[3] = system: T2, Dual specificity mitogen-activated protein kinase kinase 6 (Homo sapiens), P52564 [S207D,T211D]; assay: Residual activity of MKK6 S207D/T211D mutant at 1 uM by microplate scintillation counting
T2 sequence (whole entry): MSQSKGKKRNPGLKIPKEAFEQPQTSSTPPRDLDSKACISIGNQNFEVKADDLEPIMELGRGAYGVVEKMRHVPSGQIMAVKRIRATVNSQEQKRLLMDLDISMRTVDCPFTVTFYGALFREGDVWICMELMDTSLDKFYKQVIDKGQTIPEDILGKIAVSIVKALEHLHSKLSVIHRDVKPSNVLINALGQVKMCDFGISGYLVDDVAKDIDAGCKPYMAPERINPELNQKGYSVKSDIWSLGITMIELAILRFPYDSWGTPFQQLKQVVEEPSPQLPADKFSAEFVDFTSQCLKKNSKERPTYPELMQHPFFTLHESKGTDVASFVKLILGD

[4] = biological target: Serine/threonine-protein kinase N2 (Homo sapiens) (UniProt Q16513); assay: Residual activity of PRK2 at 1 uM by microplate scintillation counting
[5] = biological target: Macrophage-stimulating protein receptor (Homo sapiens) (UniProt Q04912); assay: Residual activity of RON at 1 uM by microplate scintillation counting
[6] = biological target: T3, Serine/threonine-protein kinase Sgk1 (Homo sapiens) (UniProt O00141); assay: Residual activity of SGK1 at 1 uM by microplate scintillation counting
T3 sequence (whole entry): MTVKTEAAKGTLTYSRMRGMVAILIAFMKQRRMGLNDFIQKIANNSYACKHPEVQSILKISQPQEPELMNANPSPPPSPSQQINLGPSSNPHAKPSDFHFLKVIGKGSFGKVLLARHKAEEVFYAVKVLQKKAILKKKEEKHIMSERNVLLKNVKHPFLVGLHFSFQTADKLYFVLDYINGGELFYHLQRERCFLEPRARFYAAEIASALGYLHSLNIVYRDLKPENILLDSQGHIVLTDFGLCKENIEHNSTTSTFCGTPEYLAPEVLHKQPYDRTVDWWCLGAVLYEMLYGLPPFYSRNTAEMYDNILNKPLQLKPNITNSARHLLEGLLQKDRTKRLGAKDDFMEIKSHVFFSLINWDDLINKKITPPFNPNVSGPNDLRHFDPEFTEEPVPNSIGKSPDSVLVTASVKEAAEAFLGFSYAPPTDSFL

[7] = biological target: T4, Serine/threonine-protein kinase TBK1 (Homo sapiens) (UniProt Q9UHD2); assay: Residual activity of TBK1 at 1 uM by microplate scintillation counting
T4 sequence (whole entry): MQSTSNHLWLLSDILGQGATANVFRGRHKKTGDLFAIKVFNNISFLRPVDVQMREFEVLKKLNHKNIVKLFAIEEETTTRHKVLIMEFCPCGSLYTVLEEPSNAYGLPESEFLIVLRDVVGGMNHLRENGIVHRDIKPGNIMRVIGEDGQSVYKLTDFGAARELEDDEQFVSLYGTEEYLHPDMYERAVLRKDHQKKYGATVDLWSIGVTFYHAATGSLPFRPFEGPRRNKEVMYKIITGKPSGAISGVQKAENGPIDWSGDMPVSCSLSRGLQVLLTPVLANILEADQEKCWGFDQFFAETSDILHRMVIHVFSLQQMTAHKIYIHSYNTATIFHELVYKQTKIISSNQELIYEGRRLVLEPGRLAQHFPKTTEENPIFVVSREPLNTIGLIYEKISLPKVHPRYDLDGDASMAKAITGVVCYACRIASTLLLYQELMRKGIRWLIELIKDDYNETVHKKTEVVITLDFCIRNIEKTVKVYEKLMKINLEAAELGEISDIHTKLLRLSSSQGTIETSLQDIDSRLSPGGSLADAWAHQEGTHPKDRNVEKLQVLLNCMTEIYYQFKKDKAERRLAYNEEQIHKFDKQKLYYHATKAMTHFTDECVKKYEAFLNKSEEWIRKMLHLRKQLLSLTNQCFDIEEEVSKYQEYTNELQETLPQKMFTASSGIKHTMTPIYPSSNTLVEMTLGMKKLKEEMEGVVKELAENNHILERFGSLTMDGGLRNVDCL

[8] = biological target: RAC-alpha serine/threonine-protein kinase (Homo sapiens) (UniProt P31749); assay: Residual activity of AKT1 at 1 uM by microplate scintillation counting
[9] = biological target: Protein-tyrosine kinase 6 (Homo sapiens) (UniProt Q13882); assay: Residual activity of BRK at 0.1 uM by microplate scintillation counting
[10] = biological target: Cyclin-dependent kinase 2/cyclin A (Homo sapiens) (UniProt P24941+P20248+P78396); assay: Residual activity of CDK2/Cyclin A at 0.1 uM by microplate scintillation counting; type: protein-complex assay
[11] = biological target: Serine/threonine-protein kinase PLK2 (Homo sapiens) (UniProt Q9NYY3); assay: Residual activity of SNK at 0.1 uM by microplate scintillation counting
[12] = biological target: BDNF/NT-3 growth factors receptor (Homo sapiens) (UniProt Q16620); assay: Residual activity of TRK-B at 0.1 uM by microplate scintillation counting
Chain of BDNF/NT-3 growth factors receptor (Homo sapiens) (Q16620 32-822 limits assumed): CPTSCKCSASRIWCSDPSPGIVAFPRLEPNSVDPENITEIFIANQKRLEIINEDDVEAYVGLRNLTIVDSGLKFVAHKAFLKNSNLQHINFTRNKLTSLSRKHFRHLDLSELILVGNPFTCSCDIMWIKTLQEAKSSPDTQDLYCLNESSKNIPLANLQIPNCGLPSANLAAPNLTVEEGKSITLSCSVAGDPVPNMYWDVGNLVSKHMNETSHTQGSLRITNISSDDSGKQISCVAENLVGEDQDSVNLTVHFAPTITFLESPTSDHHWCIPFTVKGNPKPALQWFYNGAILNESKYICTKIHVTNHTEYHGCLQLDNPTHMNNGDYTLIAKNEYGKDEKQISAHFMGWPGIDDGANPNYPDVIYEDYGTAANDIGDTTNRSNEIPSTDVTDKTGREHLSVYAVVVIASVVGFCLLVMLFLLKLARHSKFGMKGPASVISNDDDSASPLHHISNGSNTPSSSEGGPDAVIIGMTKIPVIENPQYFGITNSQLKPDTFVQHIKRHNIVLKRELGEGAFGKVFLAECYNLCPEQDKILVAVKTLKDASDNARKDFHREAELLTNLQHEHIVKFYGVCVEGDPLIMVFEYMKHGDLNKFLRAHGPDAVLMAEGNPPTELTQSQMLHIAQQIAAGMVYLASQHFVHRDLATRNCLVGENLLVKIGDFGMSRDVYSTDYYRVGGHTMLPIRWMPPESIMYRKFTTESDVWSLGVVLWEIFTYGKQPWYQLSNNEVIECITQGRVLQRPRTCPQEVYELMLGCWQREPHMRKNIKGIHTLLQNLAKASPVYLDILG

Chain of Macrophage-stimulating protein receptor (Homo sapiens) (Q04912 25-304 limits assumed): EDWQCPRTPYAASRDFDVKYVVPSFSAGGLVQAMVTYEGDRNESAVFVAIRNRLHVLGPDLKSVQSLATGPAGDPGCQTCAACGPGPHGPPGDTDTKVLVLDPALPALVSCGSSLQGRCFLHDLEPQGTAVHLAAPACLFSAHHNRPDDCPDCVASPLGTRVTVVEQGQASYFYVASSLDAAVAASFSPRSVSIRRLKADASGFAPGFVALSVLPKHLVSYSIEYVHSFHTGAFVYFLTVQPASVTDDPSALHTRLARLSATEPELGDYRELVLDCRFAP
Chain of Macrophage-stimulating protein receptor (Homo sapiens) (Q04912 310-1400 limits assumed): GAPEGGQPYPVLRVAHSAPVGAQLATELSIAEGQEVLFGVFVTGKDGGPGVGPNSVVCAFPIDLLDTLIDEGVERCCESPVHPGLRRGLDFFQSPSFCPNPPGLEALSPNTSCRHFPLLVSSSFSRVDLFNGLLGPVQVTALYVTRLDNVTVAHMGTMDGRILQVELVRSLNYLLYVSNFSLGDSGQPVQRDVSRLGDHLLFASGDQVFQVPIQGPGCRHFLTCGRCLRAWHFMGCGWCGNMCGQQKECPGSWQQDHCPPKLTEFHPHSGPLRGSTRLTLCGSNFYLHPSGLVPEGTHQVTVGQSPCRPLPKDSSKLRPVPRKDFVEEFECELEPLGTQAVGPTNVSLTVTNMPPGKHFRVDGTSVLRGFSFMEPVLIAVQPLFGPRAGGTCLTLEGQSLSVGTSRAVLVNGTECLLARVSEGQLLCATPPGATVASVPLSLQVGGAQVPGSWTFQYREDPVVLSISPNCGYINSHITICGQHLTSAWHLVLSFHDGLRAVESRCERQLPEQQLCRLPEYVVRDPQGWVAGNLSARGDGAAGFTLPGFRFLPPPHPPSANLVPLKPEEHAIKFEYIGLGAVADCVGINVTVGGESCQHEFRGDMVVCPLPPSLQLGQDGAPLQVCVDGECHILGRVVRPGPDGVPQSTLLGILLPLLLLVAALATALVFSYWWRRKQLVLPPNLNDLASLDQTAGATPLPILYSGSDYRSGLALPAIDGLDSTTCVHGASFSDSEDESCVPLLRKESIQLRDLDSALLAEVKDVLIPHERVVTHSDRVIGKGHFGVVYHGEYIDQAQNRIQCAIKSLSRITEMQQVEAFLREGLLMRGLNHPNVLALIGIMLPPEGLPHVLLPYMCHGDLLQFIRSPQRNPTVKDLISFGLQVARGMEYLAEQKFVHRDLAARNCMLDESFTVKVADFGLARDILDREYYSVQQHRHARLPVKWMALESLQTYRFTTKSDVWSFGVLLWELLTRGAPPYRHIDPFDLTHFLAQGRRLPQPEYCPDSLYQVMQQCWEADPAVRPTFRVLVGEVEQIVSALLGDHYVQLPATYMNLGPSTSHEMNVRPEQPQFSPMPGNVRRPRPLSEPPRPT
Chain of RAC-alpha serine/threonine-protein kinase (Homo sapiens) (P31749 whole entry): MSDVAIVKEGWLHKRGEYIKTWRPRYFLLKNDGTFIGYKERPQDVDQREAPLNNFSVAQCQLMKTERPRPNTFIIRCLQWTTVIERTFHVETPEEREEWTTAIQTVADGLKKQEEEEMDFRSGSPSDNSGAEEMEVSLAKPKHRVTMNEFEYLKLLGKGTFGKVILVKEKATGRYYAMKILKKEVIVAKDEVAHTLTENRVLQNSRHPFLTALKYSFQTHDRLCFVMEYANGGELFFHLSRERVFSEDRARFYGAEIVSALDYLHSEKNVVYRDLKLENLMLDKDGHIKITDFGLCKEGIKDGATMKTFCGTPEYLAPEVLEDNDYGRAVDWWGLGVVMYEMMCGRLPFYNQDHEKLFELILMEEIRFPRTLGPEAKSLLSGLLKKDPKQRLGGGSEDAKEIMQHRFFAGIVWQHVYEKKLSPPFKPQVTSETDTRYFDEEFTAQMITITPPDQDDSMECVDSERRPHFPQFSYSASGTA
Chain of Protein kinase C beta type (Homo sapiens) (P05771 2-671 limits assumed): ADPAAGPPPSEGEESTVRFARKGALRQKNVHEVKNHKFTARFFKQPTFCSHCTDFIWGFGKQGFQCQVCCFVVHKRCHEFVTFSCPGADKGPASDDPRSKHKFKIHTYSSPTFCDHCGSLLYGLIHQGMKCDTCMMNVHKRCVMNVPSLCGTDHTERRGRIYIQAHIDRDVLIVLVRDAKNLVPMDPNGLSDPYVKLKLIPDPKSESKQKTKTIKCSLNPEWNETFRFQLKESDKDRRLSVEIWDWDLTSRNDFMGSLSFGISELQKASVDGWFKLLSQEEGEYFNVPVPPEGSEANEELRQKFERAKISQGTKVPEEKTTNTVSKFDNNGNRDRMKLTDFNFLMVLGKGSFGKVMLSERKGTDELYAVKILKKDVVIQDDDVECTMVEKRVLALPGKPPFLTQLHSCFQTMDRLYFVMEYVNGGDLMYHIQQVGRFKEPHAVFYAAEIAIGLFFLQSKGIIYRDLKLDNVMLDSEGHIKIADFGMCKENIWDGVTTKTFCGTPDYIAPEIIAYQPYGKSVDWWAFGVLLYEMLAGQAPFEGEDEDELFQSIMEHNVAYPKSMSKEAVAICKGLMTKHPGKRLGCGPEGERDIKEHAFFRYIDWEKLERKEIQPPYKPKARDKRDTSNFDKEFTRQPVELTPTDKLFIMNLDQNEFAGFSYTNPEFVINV
Chain of Protein-tyrosine kinase 6 (Homo sapiens) (Q13882 whole entry, looked up): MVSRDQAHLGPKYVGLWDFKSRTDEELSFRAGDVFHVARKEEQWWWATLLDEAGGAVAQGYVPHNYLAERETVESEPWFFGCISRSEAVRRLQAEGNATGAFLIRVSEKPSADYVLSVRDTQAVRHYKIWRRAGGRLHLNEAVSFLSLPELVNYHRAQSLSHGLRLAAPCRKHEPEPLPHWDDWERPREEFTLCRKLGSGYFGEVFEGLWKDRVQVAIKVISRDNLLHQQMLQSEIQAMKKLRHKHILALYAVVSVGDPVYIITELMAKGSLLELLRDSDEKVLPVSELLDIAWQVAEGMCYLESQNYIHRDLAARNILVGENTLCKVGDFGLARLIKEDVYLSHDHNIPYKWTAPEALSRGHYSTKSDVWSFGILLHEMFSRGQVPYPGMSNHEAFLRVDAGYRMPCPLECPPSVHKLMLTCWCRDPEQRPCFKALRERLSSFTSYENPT
Chain of Serine/threonine-protein kinase PLK2 (Homo sapiens) (Q9NYY3 whole entry, looked up): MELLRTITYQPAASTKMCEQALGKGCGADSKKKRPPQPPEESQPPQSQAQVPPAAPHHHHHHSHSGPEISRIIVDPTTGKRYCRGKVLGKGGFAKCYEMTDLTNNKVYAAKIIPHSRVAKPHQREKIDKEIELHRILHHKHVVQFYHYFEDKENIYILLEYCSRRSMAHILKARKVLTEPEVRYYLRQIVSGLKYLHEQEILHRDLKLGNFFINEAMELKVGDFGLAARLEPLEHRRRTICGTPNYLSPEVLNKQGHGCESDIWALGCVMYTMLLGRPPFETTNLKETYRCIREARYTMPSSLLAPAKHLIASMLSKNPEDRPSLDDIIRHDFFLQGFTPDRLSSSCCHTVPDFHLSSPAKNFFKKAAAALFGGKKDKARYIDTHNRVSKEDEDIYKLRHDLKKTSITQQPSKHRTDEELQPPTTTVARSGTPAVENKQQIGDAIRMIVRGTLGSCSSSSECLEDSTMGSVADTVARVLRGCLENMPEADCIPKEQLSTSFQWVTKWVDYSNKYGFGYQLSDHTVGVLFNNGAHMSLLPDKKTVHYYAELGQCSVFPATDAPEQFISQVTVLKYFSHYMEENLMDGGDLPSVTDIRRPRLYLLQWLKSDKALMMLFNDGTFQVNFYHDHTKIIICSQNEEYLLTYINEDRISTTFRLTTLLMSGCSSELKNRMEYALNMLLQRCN

residual activity [1]	residual activity [2]	residual activity [3]	residual activity [4]	residual activity [5]	residual activity [6]	residual activity [7]	residual activity [8]	residual activity [9]	residual activity [10]	residual activity [11]	residual activity [12]	SMILES
87%	111%	100%	97%	60%	99%	92%	97%	57%	96%	108%	97%	COc1cc2c(Oc3ccc(-c4nc5ccccc5s4)cc3)ncnc2cc1OCCCN1CCCC1
66%	104%	84%	66%	48%	86%	85%	109%	65%	94%	89%	82%	COc1cc2c(Oc3ccc(-c4nc5ccccc5s4)cc3)ncnc2cc1OCCCN1CCN(C)CC1
80%	132%	103%	70%	35%	96%	99%	100%	35%	100%	89%	94%	COc1cc2c(Oc3ccc(-c4nc5ccccc5s4)cc3F)ncnc2cc1OCCCN1CCN(C)CC1
